Like-named read-outs stand apart in the source and are kept apart here.
Experiments:
[1] = test system: HepG2 cells; conditions: cited from earlier work
[2] = test system: rat primary hepatocytes; test: MMP assay in rat primary hepatocytes; conditions: for IC50: read-out: MMP assays IC50 (µM) Rat Hepatocytes
[3] = test system: rat primary hepatocytes
[4] = test system: HepG2 cells; conditions: for IC50: read-out: MMP assays IC50 (µM) HepG2
[5] = read-out: MMP assays IC50 (µM), qHTS-HepG2
[6] = read-out: MMP assays IC50 (µM) qHTS-HepG2

Row | Compound | MMP assays efficacy (%) qHTS-HepG2 [1] | IC50 [1, 5] [µM] | MMP assays IC50 (µM) Rat Hepatocytes [2] | MMP assays efficacy (%) Rat Hepatocytes [3] | MMP assays efficacy (%) HepG2 [4] | IC50 [4] [µM] | MMP assays IC50 (µM) qHTS-HepG2 [1] | MMP assays IC50 (µM) HepG2 [4] | IC50 [2] [µM] | IC50 [1, 6] [µM] | IC50 ([2]; Rattus norvegicus, Hepatocyte) [µM]
1 | Cc1oc(C)c(C(=O)Nc2ccccc2)c1C [Methfuroxam] | -69±12% | 25.8 ± 1.71 | inactive | inactive | -48% | 17.8 |  |  |  |  | 
2 | NC(=O)c1cc([N+](=O)[O-])cc([N+](=O)[O-])c1 [Nitromide] | inactive |  | inactive | inactive | inactive |  | inactive | inactive |  |  | 
3 | CCCCCCCCCCCCCC[P+](CCCCCC)(CCCCCC)CCCCCC.[Br-] [Trihexyltetradecylphosphonium bromide] | -96±9% | 0.84 ± 0.24 |  | -89±37% | -95% | 0.45 |  |  | 18.8 ± 4.25 |  | 
4 | Mepartricin | -82±8% | 23.2 ± 6.59 |  | -65±17% | -99% | 6.9 |  |  | 27.7 ± 4.48 |  | 
5 | CC#C[C@]1(O)CC[C@H]2[C@@H]3CCC4=CC(=O)CCC4=C3[C@@H](c3ccc(N(C)C)cc3)C[C@@]21C | -97±21% | 16.1 ± 32.5 | inactive | inactive | inactive |  |  | inactive |  |  | 
6 | CCC[CH2][Sn]([CH2]CCC)([CH2]CCC)[CH2]CCC [Tetrabutyltin] | -100±1% | 5.66 ± 1.03 | inactive | inactive | -98% | 11.2 |  |  |  |  | 
7 | Cc1ccc(-n2nc(C(C)(C)C)cc2NC(=O)Nc2ccc(OCCN3CCOCC3)c3ccccc23)cc1 [Doramapimod;BIBR-796?] |  |  |  | -77±5% | -69% | 21.8 |  |  | 24.1 ± 9.54 | 21.1 ± 5.52 | 
8 | Clc1ccc(Nc2nnc(Cc3ccncc3)c3ccccc23)cc1 | -81±8% | 25.6 ± 4.41 |  | -51±4% | -34% | 30.8 |  |  | 20.7 ± 14.7 |  | 
9 | CC(=O)[O][Sn]([c]1ccccc1)([c]1ccccc1)[c]1ccccc1 [Triphenyltin acetate] | -99±5% | 0.12 ± 0.04 |  | -74±32% | -94% | 1.12 |  |  | 24.1 ± 10.1 |  | 
10 | Cl.Cl.Nc1ccccc1N [1,2-Phenylenediamine dihydrochloride] | -99±9% |  |  | -104±10% | -90% | 1.78 |  |  | 14.2 ± 2.3 | 0.44 ± 0.2 | 
11 | Cresyl diphenyl phosphate |  |  |  | -76±37% | -91% | 3.55 |  |  | 23 ± 9 | 2.38 ± 2.32 | 
12 | Tributyltin chloride | -97±11% | 0.11 ± 0.02 |  | -136±58% | -96% | 0.89 |  |  | 8.95 ± 1.03 |  | 
13 | CCCC[P+](CCCC)(CCCC)CCCC.[Cl-] [Tetrabutylphosphonium chloride] | inactive |  |  | -108+36% | inactive |  | inactive | inactive | 15.3 ± 5 |  | 
14 | CC(=O)O[Si](C)(OC(C)=O)OC(C)=O [Methylsilanetriyl triacetate] | -67±10% | 29.1 ± 16.4 | inactive | inactive | inactive |  |  | inactive |  |  | 
15 | CCCCCCCCCCCCCC[n+]1ccc(C)cc1.[Cl-] [Miripirium chloride] | -86±9% | 16.4 ± 4.01 |  | -106±27% | -121% |  |  |  | 19.5 ± 2.25 |  | 
16 | CC1(C)[C@@H](O)CC[C@]2(C)[C@H]3C(=O)C=C4[C@@H]5C[C@@](C)(C(=O)O)CC[C@]5(C)CC[C@@]4(C)[C@]3(C)CC[C@@H]12 [Glycyrrhetinic acid] | -88±53% | 40.1 ± 9.34 |  | -44±24% | inactive |  |  | inactive |  |  | 15.6 ± 2.52
17 | O=C(c1ccc(OCCN2CCCCC2)cc1)c1c(-c2ccc(O)cc2)sc2cc(O)ccc12 [Raloxifene] | -121±25% | 5.05 ± 3.99 |  | -92±39% | -96% | 17.8 |  |  |  |  | 22.4 ± 24.1
18 | O=C1C(I)=CC(=C(c2cc(I)c(O)c(I)c2)c2ccccc2C(=O)O)C=C1I [Iodophthalein sodium] | -82±5% | 10.8 ± 3.91 |  | -107±27% | -97% | 6.9 |  |  | 8.73 ± 1 |  | 
19 | CCN1\C(=C/C=C/C=C/c2sc3ccccc3[n+]2CC)Sc2ccccc21.[Cl-] [Dithiazanine chloride] | -56±6% |  |  | -77±9% | -79% | 0.15 |  |  | 2.45 | 0.27 | 
20 | Cc1cc(Nc2ccccc2C(=O)O)ccc1Cl | -99±8% |  |  | -92±11% | -100% | 35.5 |  |  | 22.7 ± 16.2 | 12.8 ± 0.84 | 
21 | [OH-].c1cc[c]([Sn+]([c]2ccccc2)[c]2ccccc2)cc1 [Triphenyltin hydroxide] | -95±9% | 0.12 ± 0.03 |  | -118±53% | -94% | 1.12 |  |  | 14.8 ± 5.12 |  | 
22 | O=[N+]([O-])c1ccc2nc[nH]c2c1 [Compound 6-Nitrobenzimidazole] | -53±6% |  | inactive | inactive | inactive |  |  | inactive |  | 36.4 ± 10.8 | 
23 | COc1ccc(N)cc1N.O=S(=O)(O)O [2,4-Diaminoanisole sulfate] | -95±6% |  |  | -58±24% | -125% | 7.94 |  |  | 19.6 ± 19.3 | 2.51 ± 1.16 | 
24 | CCCCC/C(=C\c1ccccc1)CO [alpha-Amylcinnamyl alcohol] | -87±10% |  |  | -85±44% | -69% | 56.2 |  |  | 4.83 ± 4.07 | 38.1 ± 17.4 | 

From article PMC6112376, “Comprehensive Analyses and Prioritization of Tox21 10K Chemicals Affecting Mitochondrial Function by in-Depth Mechanistic Studies” (Environmental Health Perspectives, 2018)
